Measured values from article PMC5896744 (The Biochemical journal, 2017).

Key:
Assay in all cases: SPR solution competition
Type in all cases: binding
PKA hRIα CNB-B (234–381) [1] = target: PKA hRIα CNB-B (234–381) (Homo sapiens, UniProt P10644, G316R)
PKA hRIα CNB-A (115–274) [2] = target: PKA hRIα CNB-A (115–274) (Homo sapiens, UniProt P10644, T192R)
PKA hRIα CNB-A (115–274) [3] = target: PKA hRIα CNB-A (115–274) (Homo sapiens, UniProt P10644)
PKA hRIα CNB-B (234–381) [4] = target: PKA hRIα CNB-B (234–381) (Homo sapiens, UniProt P10644)
PKA hRIα CNB-B (234–381) [5] = target: PKA hRIα CNB-B (234–381) (Homo sapiens, UniProt P10644, A336T/G316R/V315L)
PKA hRIα CNB-A (115–274) [6] = target: PKA hRIα CNB-A (115–274) (Homo sapiens, UniProt P10644, A212T/T192R)
PKA hRIα CNB-B (234–381) [7] = target: PKA hRIα CNB-B (234–381) (Homo sapiens, UniProt P10644, G316R/V315L)
PKA hRIα CNB-B (234–381) [8] = target: PKA hRIα CNB-B (234–381) (Homo sapiens, UniProt P10644, A336T)
PKA hRIα CNB-A (115–274) [9] = target: PKA hRIα CNB-A (115–274) (Homo sapiens, UniProt P10644, A212T)
PKA hRIα CNB-B (234–381) [10] = target: PKA hRIα CNB-B (234–381) (Homo sapiens, UniProt P10644, A336T/G316R)
PKA hRIα CNB-B (234–381) [11] = target: PKA hRIα CNB-B (234–381) (Homo sapiens, UniProt P10644, V315L)

SMILES	EC50 (PKA hRIα CNB-B (234–381) [1])	EC50 (PKA hRIα CNB-A (115–274) [2])	EC50 (PKA hRIα CNB-A (115–274) [3])	EC50 (PKA hRIα CNB-B (234–381) [4])	EC50 (PKA hRIα CNB-B (234–381) [5])	EC50 (PKA hRIα CNB-A (115–274) [6])	EC50 (PKA hRIα CNB-B (234–381) [7])	EC50 (PKA hRIα CNB-B (234–381) [8])	EC50 (PKA hRIα CNB-A (115–274) [9])	EC50 (PKA hRIα CNB-B (234–381) [10])	EC50 (PKA hRIα CNB-B (234–381) [11])
O=c1[nH]cnc2c1ncn2[C@@H]1O[C@@H]2COP(=O)(O)O[C@H]2[C@H]1O [cIMP]	25 ± 9 nM	156 ± 5 nM	273 ± 16 nM	114 ± 51 nM	–	–	–	–	–	–	–
Nc1nc2c(ncn2[C@@H]2O[C@@H]3COP(=O)(O)O[C@H]3[C@H]2O)c(=O)[nH]1 [cGMP]	98 ± 41 nM	1530 ± 53 nM	–	–	0.6 ± 0.3 nM	24 ± 5 nM	66 ± 2 nM	2 ± 0.1 nM	83 ± 33 nM	0.4 ± 0.1 nM	678 ± 100 nM
